Test results as given in paper PMC7531004, “Discovery of gramicidin A analogues with altered activities by multidimensional screening of a one-bead-one-compound library” (Nature Communications, 2020).
Where a SMILES comes first, the peptide text is derived from it. [ ]: non-standard residue; d: D form. The star is where a group is joined. NHCH2CH2OH = OCCN*; For = O=C*

Legend:
[1] = H+/Na+ transport assay of bead-derived peptides (one-point); assay type: biochemical; parameters: key: relative activity; mean of two control wells = 1.00; settings: bead-derived peptide solution, EYPC/EYPG LUVs;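 further: relative to parent gramicidin A activity set to 1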
In short: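 Pyranine (1.0 mM)-loaded LUVs containing egg yolk phosphatidylglycerol were prepared by film hydration, sonication and extrusion, then mixed with diluted bead-derived peptide in 96-well format and vortexed 30 min at room temperature. Fluorescence was normalized between untreated LUVs (0%) and Triton X-100 lysis (100%).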

[2] = test system: P388 mouse leukemia cells; settings: 92 h
In short: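 Peptide stocks diluted 250× in growth medium; P388 cells 1 × 10^4 cells/mL final; 37 °C, 5% CO2, 92 h. WST-1 + 1-methoxy PMS, 4 h, A415. Output: % viability.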

[3] = test system: Streptococcus pyogenes SSI-9; experiment: Antibacterial activity assay of bead-derived peptides (three concentrations); assay type: cell-based; parameters: key: +++: inhibition by the 640-fold diluted peptide solution; ++: inhibition by the 160-fold diluted solution; +: inhibition by the 40-fold diluted solution; -: no inhibition; settings: S. pyogenes, bead-derived peptide solution, three concentrations
In short: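 First, each peptide stock was diluted 4- and 16-fold in DMSO; next, the three solutions were mixed with S. pyogenes SSI-9 suspension (2 × 10^5 CFU) in cation-adjusted Mueller Hinton Broth plus 5% laked horse blood; finally, plates stood 18 h at 37 °C before checking for grown-cell precipitation.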

| Compound | H+/Na+ transport activity normalized against the value of 1 (1.00) [1] | cell viability/% [2] [%] | antibacterial activity [3] |
| --- | --- | --- | --- |
| CNC(=O)C[C@@H](NC(=O)[C@@H](NC(=O)[C@@H](CC(C)C)NC(=O)[C@H](C)NC(=O)[C@H](NC(=O)[C@H](C)NC(=O)CNC(=O)[C@@H](NC=O)C(C)C)C(C)C)C(C)C)C(=O)N[C@@H](Cc1c[nH]c2ccccc12)C(=O)N[C@@H](C(=O)N[C@@H](Cc1c[nH]c2ccccc12)C(=O)N[C@@H](C(=O)N[C@@H](Cc1c[nH]c2ccccc12)C(=O)N[C@@H](C(=O)N[C@@H](Cc1c[nH]c2ccccc12)C(=O)NCCO)C(C)C)C(C)C)C(C)C [compound 8459] (For-VGA[dV]A[dL]V[dD](NHMe)W[dV]W[dV]W[dV]W-NHCH2CH2OH) | 1.03 | 47.5 | - |
| CC(C)C[C@@H](NC(=O)[C@H](Cc1c[nH]c2ccccc12)NC(=O)[C@H](NC(=O)[C@H](Cc1c[nH]c2ccccc12)NC(=O)[C@H](NC(=O)[C@H](Cc1c[nH]c2ccccc12)NC(=O)[C@H](NC(=O)[C@@H](NC(=O)[C@H](NC(=O)[C@H](C)NC(=O)[C@H](NC(=O)[C@H](C)NC(=O)CNC(=O)[C@@H](NC=O)C(C)C)C(C)C)[C@H](C)O)C(C)C)C(C)C)C(C)C)C(C)C)C(=O)N[C@@H](Cc1c[nH]c2ccccc12)C(=O)NCCO [compound 379] (For-VGA[dV]A[dT]V[dV]W[dV]W[dV]W[dL]W-NHCH2CH2OH) | 1.19 | 100.0 | - |
| CNC(=O)C[C@@H](NC(=O)[C@@H](NC(=O)[C@@H](CC(C)C)NC(=O)[C@H](C)NC(=O)[C@@H](CC(C)C)NC(=O)[C@H](C)NC(=O)CNC(=O)[C@@H](NC=O)C(C)C)C(C)C)C(=O)N[C@@H](Cc1c[nH]c2ccccc12)C(=O)N[C@H](CC(C)C)C(=O)N[C@@H](Cc1c[nH]c2ccccc12)C(=O)N[C@@H](C(=O)N[C@@H](Cc1c[nH]c2ccccc12)C(=O)N[C@H](CC(C)C)C(=O)N[C@@H](Cc1c[nH]c2ccccc12)C(=O)NCCO)C(C)C [compound 7400] (For-VGA[dL]A[dL]V[dD](NHMe)W[dL]W[dV]W[dL]W-NHCH2CH2OH) | 1.30 | 100.0 | - |
| CC(C)C[C@@H](NC(=O)[C@H](C)NC(=O)CNC(=O)[C@@H](NC=O)C(C)C)C(=O)N[C@@H](C)C(=O)N[C@@H](C(=O)N[C@H](C(=O)N[C@H](CC(C)C)C(=O)N[C@@H](Cc1c[nH]c2ccccc12)C(=O)N[C@H](CC(C)C)C(=O)N[C@@H](Cc1c[nH]c2ccccc12)C(=O)N[C@@H](C(=O)N[C@@H](Cc1c[nH]c2ccccc12)C(=O)N[C@H](CC(C)C)C(=O)N[C@@H](Cc1c[nH]c2ccccc12)C(=O)NCCO)C(C)C)C(C)C)C(C)C [compound 7191] (For-VGA[dL]A[dV]V[dL]W[dL]W[dV]W[dL]W-NHCH2CH2OH) | 1.15 | 0.0 | + |
| CNC(=O)C[C@@H](NC(=O)[C@H](Cc1c[nH]c2ccccc12)NC(=O)[C@H](NC(=O)[C@H](Cc1c[nH]c2ccccc12)NC(=O)[C@H](NC(=O)[C@H](Cc1c[nH]c2ccccc12)NC(=O)[C@H](NC(=O)[C@@H](NC(=O)[C@@H](CC(C)C)NC(=O)[C@H](C)NC(=O)[C@H](NC(=O)[C@H](C)NC(=O)CNC(=O)[C@@H](NC=O)C(C)C)C(C)C)C(C)C)C(C)C)C(C)C)C(C)C)C(=O)N[C@@H](Cc1c[nH]c2ccccc12)C(=O)NCCO [compound 7479] (For-VGA[dV]A[dL]V[dV]W[dV]W[dV]W[dD](NHMe)W-NHCH2CH2OH) | 1.00 | 100.0 | - |
| CC(C)C[C@@H](NC(=O)[C@H](C)NC(=O)CNC(=O)[C@@H](NC=O)C(C)C)C(=O)N[C@@H](C)C(=O)N[C@H](CC(C)C)C(=O)N[C@H](C(=O)N[C@@H](C(=O)N[C@@H](Cc1c[nH]c2ccccc12)C(=O)N[C@@H](C(=O)N[C@@H](Cc1c[nH]c2ccccc12)C(=O)N[C@H](CC(C)C)C(=O)N[C@@H](Cc1c[nH]c2ccccc12)C(=O)N[C@@H](C(=O)N[C@@H](Cc1c[nH]c2ccccc12)C(=O)NCCO)C(C)C)C(C)C)C(C)C)C(C)C [compound 10456] (For-VGA[dL]A[dL]V[dV]W[dV]W[dL]W[dV]W-NHCH2CH2OH) | 1.13 | 11.8 | + |
| CC(C)[C@H](NC=O)C(=O)NCC(=O)N[C@@H](C)C(=O)N[C@@H](C(=O)N[C@@H](C)C(=O)N[C@@H](C(=O)N[C@H](C(=O)N[C@@H](C(=O)N[C@@H](Cc1c[nH]c2ccccc12)C(=O)N[C@@H](C(=O)N[C@@H](Cc1c[nH]c2ccccc12)C(=O)N[C@@H](C(=O)N[C@@H](Cc1c[nH]c2ccccc12)C(=O)N[C@@H](C(=O)N[C@@H](Cc1c[nH]c2ccccc12)C(=O)NCCO)C(C)C)C(C)C)[C@H](C)O)C(C)C)C(C)C)C(C)C)C(C)C [compound 5205] (For-VGA[dV]A[dV]V[dV]W[dT]W[dV]W[dV]W-NHCH2CH2OH) | 1.22 | 100.0 | - |
| CC(C)C[C@@H](NC(=O)[C@H](Cc1c[nH]c2ccccc12)NC(=O)[C@H](NC(=O)[C@H](Cc1c[nH]c2ccccc12)NC(=O)[C@H](NC(=O)[C@H](Cc1c[nH]c2ccccc12)NC(=O)[C@@H](CC(C)C)NC(=O)[C@@H](NC(=O)[C@H](NC(=O)[C@H](C)NC(=O)[C@H](NC(=O)[C@H](C)NC(=O)CNC(=O)[C@@H](NC=O)C(C)C)[C@H](C)O)C(C)C)C(C)C)C(C)C)C(C)C)C(=O)N[C@@H](Cc1c[nH]c2ccccc12)C(=O)NCCO [compound 9075] (For-VGA[dT]A[dV]V[dL]W[dV]W[dV]W[dL]W-NHCH2CH2OH) | 1.01 | 58.6 | - |
| CC(C)C[C@@H](NC(=O)[C@H](C)NC(=O)[C@H](NC(=O)[C@H](C)NC(=O)CNC(=O)[C@@H](NC=O)C(C)C)C(C)C)C(=O)N[C@H](C(=O)N[C@@H](C(=O)N[C@@H](Cc1c[nH]c2ccccc12)C(=O)N[C@@H](C(=O)N[C@@H](Cc1c[nH]c2ccccc12)C(=O)N[C@H](CC(C)C)C(=O)N[C@@H](Cc1c[nH]c2ccccc12)C(=O)N[C@@H](C(=O)N[C@@H](Cc1c[nH]c2ccccc12)C(=O)NCCO)C(C)C)C(C)C)[C@H](C)O)C(C)C [compound 13174] (For-VGA[dV]A[dL]V[dT]W[dV]W[dL]W[dV]W-NHCH2CH2OH) | 1.18 | 100.0 | - |
| CNC(=O)C[C@@H](NC(=O)[C@@H](NC(=O)[C@@H](CC(C)C)NC(=O)[C@H](C)NC(=O)[C@@H](CC(C)C)NC(=O)[C@H](C)NC(=O)CNC(=O)[C@@H](NC=O)C(C)C)C(C)C)C(=O)N[C@@H](Cc1c[nH]c2ccccc12)C(=O)N[C@H](CC(C)C)C(=O)N[C@@H](Cc1c[nH]c2ccccc12)C(=O)N[C@H](CC(C)C)C(=O)N[C@@H](Cc1c[nH]c2ccccc12)C(=O)N[C@H](CC(C)C)C(=O)N[C@@H](Cc1c[nH]c2ccccc12)C(=O)NCCO [compound 1400] (For-VGA[dL]A[dL]V[dD](NHMe)W[dL]W[dL]W[dL]W-NHCH2CH2OH) | 1.10 | 72.7 | - |
| CC(C)C[C@@H](NC(=O)[C@H](C)NC(=O)[C@H](NC(=O)[C@H](C)NC(=O)CNC(=O)[C@@H](NC=O)C(C)C)[C@H](C)O)C(=O)N[C@H](C(=O)N[C@H](CC(C)C)C(=O)N[C@@H](Cc1c[nH]c2ccccc12)C(=O)N[C@H](CC(C)C)C(=O)N[C@@H](Cc1c[nH]c2ccccc12)C(=O)N[C@H](CC(C)C)C(=O)N[C@@H](Cc1c[nH]c2ccccc12)C(=O)N[C@H](CC(C)C)C(=O)N[C@@H](Cc1c[nH]c2ccccc12)C(=O)NCCO)C(C)C [compound 10497] (For-VGA[dT]A[dL]V[dL]W[dL]W[dL]W[dL]W-NHCH2CH2OH) | 1.24 | 100.0 | - |
| CC(C)C[C@@H](NC(=O)[C@H](Cc1c[nH]c2ccccc12)NC(=O)[C@H](NC(=O)[C@H](Cc1c[nH]c2ccccc12)NC(=O)[C@@H](CC(C)C)NC(=O)[C@H](Cc1c[nH]c2ccccc12)NC(=O)[C@@H](CC(C)C)NC(=O)[C@@H](NC(=O)[C@H](NC(=O)[C@H](C)NC(=O)[C@H](NC(=O)[C@H](C)NC(=O)CNC(=O)[C@@H](NC=O)C(C)C)C(C)C)C(C)C)C(C)C)[C@H](C)O)C(=O)N[C@@H](Cc1c[nH]c2ccccc12)C(=O)NCCO [compound 457] (For-VGA[dV]A[dV]V[dL]W[dL]W[dT]W[dL]W-NHCH2CH2OH) | 1.08 | 95.8 | + |
| CC(C)C[C@@H](NC(=O)[C@H](C)NC(=O)CNC(=O)[C@@H](NC=O)C(C)C)C(=O)N[C@@H](C)C(=O)N[C@H](CC(C)C)C(=O)N[C@H](C(=O)N[C@@H](C(=O)N[C@@H](Cc1c[nH]c2ccccc12)C(=O)N[C@@H](C(=O)N[C@@H](Cc1c[nH]c2ccccc12)C(=O)N[C@@H](C(=O)N[C@@H](Cc1c[nH]c2ccccc12)C(=O)N[C@@H](C(=O)N[C@@H](Cc1c[nH]c2ccccc12)C(=O)NCCO)[C@H](C)O)C(C)C)C(C)C)C(C)C)C(C)C [compound 9735] (For-VGA[dL]A[dL]V[dV]W[dV]W[dV]W[dT]W-NHCH2CH2OH) | 1.18 | 100.0 | - |
